Assays:
[1] = target: T1, Adenosine receptor A1 (Homo sapiens) (UniProt P30542); assay: Displacement of [3H]R-PIA from human recombinant adenosine A1 receptor expressed in CHO cells at 10 uM after 60 mins by liquid scintillation counting; type: cell-based
T1 sequence (whole entry): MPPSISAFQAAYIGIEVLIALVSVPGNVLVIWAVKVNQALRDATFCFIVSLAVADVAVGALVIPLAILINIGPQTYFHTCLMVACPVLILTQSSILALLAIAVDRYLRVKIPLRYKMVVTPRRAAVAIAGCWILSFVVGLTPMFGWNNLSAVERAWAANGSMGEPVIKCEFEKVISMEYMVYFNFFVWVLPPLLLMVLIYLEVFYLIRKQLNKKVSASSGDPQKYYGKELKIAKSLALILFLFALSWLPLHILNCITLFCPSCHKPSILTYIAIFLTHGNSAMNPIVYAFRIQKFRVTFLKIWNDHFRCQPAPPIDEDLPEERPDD

[2] = target: T2, Adenosine receptor A2a (Homo sapiens, UniProt P29274); assay: Displacement of [3H]CGS21680 from human recombinant adenosine A2A receptor expressed in HEK293 cells at 10 uM after 60 mins by liquid scintillation counting; type: cell-based
T2 sequence (P29274 whole entry): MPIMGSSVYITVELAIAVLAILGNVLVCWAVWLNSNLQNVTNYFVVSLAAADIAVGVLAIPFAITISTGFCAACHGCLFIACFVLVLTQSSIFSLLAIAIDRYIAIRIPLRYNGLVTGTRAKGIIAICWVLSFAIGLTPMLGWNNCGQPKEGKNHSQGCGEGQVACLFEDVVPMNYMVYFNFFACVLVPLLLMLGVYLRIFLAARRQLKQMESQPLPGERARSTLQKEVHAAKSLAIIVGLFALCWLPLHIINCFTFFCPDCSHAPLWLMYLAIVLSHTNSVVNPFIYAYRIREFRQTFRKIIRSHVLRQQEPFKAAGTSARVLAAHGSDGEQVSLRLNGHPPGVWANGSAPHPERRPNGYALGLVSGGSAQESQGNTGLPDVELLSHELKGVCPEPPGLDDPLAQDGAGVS

[3] = target: T3, Adenosine receptor A3 (Homo sapiens) (UniProt P0DMS8); assay: Agonist activity at human recombinant adenosine A3 receptor expressed in CHO cells assessed as inhibition of forskolin-stimulated cAMP production at 10 uM incubated for 30 mins prior to forskolin-stimulation measured after 15 mins by enzyme immunoassay relative to NECA; type: functional, cell-based
T3 sequence (whole entry): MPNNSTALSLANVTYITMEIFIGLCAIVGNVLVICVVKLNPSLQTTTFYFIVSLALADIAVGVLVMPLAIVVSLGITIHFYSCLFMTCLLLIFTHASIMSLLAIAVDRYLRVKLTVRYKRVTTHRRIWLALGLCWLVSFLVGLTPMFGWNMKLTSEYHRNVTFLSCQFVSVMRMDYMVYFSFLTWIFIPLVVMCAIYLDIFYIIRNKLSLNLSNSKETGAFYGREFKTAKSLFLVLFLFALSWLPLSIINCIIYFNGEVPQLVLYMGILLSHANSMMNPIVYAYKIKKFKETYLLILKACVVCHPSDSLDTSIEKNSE

[4] = target: T2, Adenosine receptor A2a; assay: Displacement of [3H]CGS21680 from human recombinant adenosine A2A receptor expressed in HEK293 cells after 60 mins by liquid scintillation counting; type: cell-based
[5] = target: T4, Adenosine receptor A2b (Homo sapiens) (UniProt P29275); assay: Agonist activity at human adenosine A2B receptor by cAMP accumulation assay relative to NECA; type: functional
T4 sequence (whole entry): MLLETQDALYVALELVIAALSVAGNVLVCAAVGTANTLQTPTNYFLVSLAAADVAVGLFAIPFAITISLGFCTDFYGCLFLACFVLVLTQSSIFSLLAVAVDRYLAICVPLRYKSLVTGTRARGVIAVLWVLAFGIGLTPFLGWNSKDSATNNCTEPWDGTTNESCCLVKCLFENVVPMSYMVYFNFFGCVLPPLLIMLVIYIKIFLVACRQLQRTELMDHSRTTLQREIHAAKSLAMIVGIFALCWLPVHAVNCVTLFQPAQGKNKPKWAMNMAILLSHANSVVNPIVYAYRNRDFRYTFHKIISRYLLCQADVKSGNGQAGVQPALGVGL

[6] = target: T5, Adenosine receptor A1 (Mus musculus) (UniProt Q60612); assay: Displacement of from mouse adenosine A1 receptor expressed in HEK293 cells at 10 uM after 60 mins by liquid scintillation counting; set-up: reference not given here
T5 sequence (whole entry): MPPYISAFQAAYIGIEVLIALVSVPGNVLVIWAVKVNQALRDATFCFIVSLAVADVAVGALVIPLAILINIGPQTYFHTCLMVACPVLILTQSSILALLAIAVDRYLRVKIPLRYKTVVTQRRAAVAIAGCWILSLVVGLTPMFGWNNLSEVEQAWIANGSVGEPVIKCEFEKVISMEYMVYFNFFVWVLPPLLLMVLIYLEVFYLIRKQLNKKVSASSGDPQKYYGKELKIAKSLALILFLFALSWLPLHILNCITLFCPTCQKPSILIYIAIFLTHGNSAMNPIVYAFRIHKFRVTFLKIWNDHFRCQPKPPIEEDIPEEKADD

[7] = target: T6, Adenosine receptor A3 (Mus musculus, UniProt Q61618); assay: Displacement of [125I]I-AB-MECA from mouse adenosine A3 receptor expressed in HEK293 cells after 60 mins by liquid scintillation counting
T6 sequence (Q61618 whole entry): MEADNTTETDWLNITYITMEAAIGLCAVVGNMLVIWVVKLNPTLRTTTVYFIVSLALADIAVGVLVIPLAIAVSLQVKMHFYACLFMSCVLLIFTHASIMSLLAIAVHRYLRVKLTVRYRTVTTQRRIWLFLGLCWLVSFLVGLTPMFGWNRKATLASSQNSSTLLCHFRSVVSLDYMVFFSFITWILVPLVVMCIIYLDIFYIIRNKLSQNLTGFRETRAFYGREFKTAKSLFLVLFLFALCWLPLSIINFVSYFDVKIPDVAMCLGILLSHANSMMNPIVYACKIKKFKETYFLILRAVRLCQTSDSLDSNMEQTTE

[8] = target: Adenosine receptor A2a (Mus musculus) (UniProt Q60613); assay: Displacement of [3H]CGS21680 from mouse adenosine A2A receptor expressed in HEK293 cells at 10 uM after 60 mins by liquid scintillation counting
Chain of Adenosine receptor A2a (Mus musculus) (Q60613 whole entry): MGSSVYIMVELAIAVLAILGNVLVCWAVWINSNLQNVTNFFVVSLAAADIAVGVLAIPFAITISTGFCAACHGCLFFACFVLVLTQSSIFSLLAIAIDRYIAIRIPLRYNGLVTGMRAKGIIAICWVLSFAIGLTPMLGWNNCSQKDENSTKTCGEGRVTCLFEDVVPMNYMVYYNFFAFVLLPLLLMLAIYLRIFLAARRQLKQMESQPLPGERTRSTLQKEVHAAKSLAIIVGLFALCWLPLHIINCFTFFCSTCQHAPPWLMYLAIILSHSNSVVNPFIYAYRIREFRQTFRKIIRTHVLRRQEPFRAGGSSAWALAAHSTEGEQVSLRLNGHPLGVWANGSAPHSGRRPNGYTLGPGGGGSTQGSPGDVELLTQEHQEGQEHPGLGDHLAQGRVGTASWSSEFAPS

[9] = Selectivity ratio of Ki for mouse adenosine A3 receptor to Ki for human recombinant adenosine A3 receptor

Row | SMILES | inhibition [1] | inhibition [2] | Efficacy [3] | Ki [4] | Efficacy [5] | inhibition [6] | Ki [7] | inhibition [8] | Ratio Ki [9]
1 | CNC(=O)[C@@]12C[C@@H]1[C@@H](n1cnc3c(NC)nc(C#Cc4cc(F)cc(F)c4)nc31)[C@H](O)[C@@H]2O | 8% | 47% | 99.6% | – | – | – | – | – | –
2 | CNC(=O)[C@@]12C[C@@H]1[C@@H](n1cnc3c(NCc4cccc(Cl)c4)nc(C#Cc4ccc5ccc6cccc7ccc4c5c67)nc31)[C@H](O)[C@@H]2O | 8% | – | 77.8% | 3110 nM | 20% | 8% | 47.6 nM | 64% | –
3 | CNC(=O)[C@@]12C[C@@H]1[C@@H](n1cnc3c(NC)nc(C#Cc4cccc(F)c4)nc31)[C@H](O)[C@@H]2O | 12% | 10% | 95.8% | – | – | – | – | – | –
4 | CNC(=O)[C@@]12C[C@@H]1[C@@H](n1cnc3c(NCc4cccc(Cl)c4)nc(C#Cc4cccc(Cl)c4)nc31)[C@H](O)[C@@H]2O | 4% | – | 91.5% | 1740 nM | 20% | 35% | 2.39 nM | 55% | –
5 | CNC(=O)[C@@]12C[C@@H]1[C@@H](n1cnc3c(NC)nc(C#Cc4ccc(F)c(F)c4)nc31)[C@H](O)[C@@H]2O | 6% | 6% | 108% | – | – | – | – | – | –
6 | CNC(=O)[C@@]12C[C@@H]1[C@@H](n1cnc3c(NC)nc(C#Cc4ccccc4)nc31)[C@H](O)[C@@H]2O | 13% | 14% | – | – | – | – | – | – | –
7 | CNC(=O)[C@@]12C[C@@H]1[C@@H](n1cnc3c(NC)nc(C#Cc4ccc(C(C)=O)cc4)nc31)[C@H](O)[C@@H]2O | 15% | – | 87.4% | 5300 nM | 20% | – | – | – | –
8 | CNC(=O)[C@@]12C[C@@H]1[C@@H](n1cnc3c(NCc4cccc(Cl)c4)nc(C#Cc4ccc(F)cc4)nc31)[C@H](O)[C@@H]2O | 20% | 42% | 102% | – | 20% | 65% | 2.38 nM | 7% | –
9 | CNC(=O)[C@@]12C[C@@H]1[C@@H](n1cnc3c(NCc4cccc(I)c4)ncnc31)[C@H](O)[C@@H]2O | – | – | 100% | – | – | – | – | – | –
10 | CNC(=O)[C@@]12C[C@@H]1[C@@H](n1cnc3c(NC)nc(C#Cc4cccc(N)c4)nc31)[C@H](O)[C@@H]2O | 10% | 19% | 109% | – | – | – | – | – | –
11 | CNC(=O)[C@@]12C[C@@H]1[C@@H](n1cnc3c(NCc4cccc(Cl)c4)nc(C#Cc4ccc(-c5ccccc5)cc4)nc31)[C@H](O)[C@@H]2O | 2% | 0% | 89% | – | – | 41% | 10.8 nM | 6% | 3
12 | CNC(=O)[C@@]12C[C@@H]1[C@@H](n1cnc3c(NC)nc(C#Cc4ccc(Br)cc4)nc31)[C@H](O)[C@@H]2O | 13% | 26% | 97.5% | – | – | – | – | – | –
13 | CNC(=O)[C@@]12C[C@@H]1[C@@H](n1cnc3c(NCc4cccc(Cl)c4)nc(C#Cc4ccccc4)nc31)[C@H](O)[C@@H]2O | 20% | 27% | 101% | – | – | 50% | – | 2% | –
14 | CNC(=O)[C@@]12C[C@@H]1[C@@H](n1cnc3c(NC)nc(C#Cc4ccc(C(C)(C)C)cc4)nc31)[C@H](O)[C@@H]2O | 23% | 7% | 78.4% | – | – | – | – | – | –
15 | CNC(=O)[C@@]12C[C@@H]1[C@@H](n1cnc3c(NC)nc(C#Cc4ccc(F)cc4)nc31)[C@H](O)[C@@H]2O | 21% | 19% | 80.3% | – | – | 29% | 37.7 nM | 0% | 70
16 | CNC(=O)[C@@]12C[C@@H]1[C@@H](n1cnc3c(NC)nc(C#Cc4ccccc4F)nc31)[C@H](O)[C@@H]2O | 21% | 17% | 97.7% | – | – | – | – | – | –
17 | CNC(=O)[C@@]12C[C@@H]1[C@@H](n1cnc3c(NC)nc(C#Cc4ccc(Cl)cc4)nc31)[C@H](O)[C@@H]2O | 14% | 30% | 97.4% | – | – | – | – | – | –
18 | CNC(=O)[C@@]12C[C@@H]1[C@@H](n1cnc3c(NCc4cccc(Cl)c4)nc(C#Cc4ccc(F)c(F)c4)nc31)[C@H](O)[C@@H]2O (single isomer, unassigned) | 6% | 41% | – | – | 20% | 14% | – | 27% | –
19 | CNC(=O)[C@@]12C[C@@H]1[C@@H](n1cnc3c(NC)nc(C#Cc4cc5ccccc5c5ccccc45)nc31)[C@H](O)[C@@H]2O | 15% | 52% | 108% | – | – | – | – | – | –
20 | CNC(=O)[C@@]12C[C@@H]1[C@@H](n1cnc3c(NC)nc(C#Cc4cccc(Cl)c4)nc31)[C@H](O)[C@@H]2O | 10% | – | 90.9% | – | 20% | – | – | – | –
21 | CCc1ccc(C#Cc2nc(NC)c3ncn([C@H]4[C@H](O)[C@H](O)[C@]5(C(=O)NC)C[C@H]45)c3n2)cc1 | 13% | 38% | 110% | – | – | – | – | – | –
22 | CNC(=O)[C@@]12C[C@@H]1[C@@H](n1cnc3c(NCc4cccc(Cl)c4)nc(C#Cc4ccccc4Cl)nc31)[C@H](O)[C@@H]2O | 19% | 52% | 103% | – | – | 51% | 2.64 nM | 19% | –
23 | CNC(=O)[C@@]12C[C@@H]1[C@@H](n1cnc3c(NC)nc(C#Cc4ccccn4)nc31)[C@H](O)[C@@H]2O | 11% | 13% | – | – | – | – | – | – | –
24 | CNC(=O)[C@@]12C[C@@H]1[C@@H](n1cnc3c(NC)nc(C#Cc4ccccc4Cl)nc31)[C@H](O)[C@@H]2O | 27% | 30% | 84.2% | – | – | 55% | 37.2 nM | 2% | 70
25 | CNC(=O)[C@@]12C[C@@H]1[C@@H](n1cnc3c(NCc4cccc(Cl)c4)nc(C#Cc4cccc(C(=O)O)c4)nc31)[C@H](O)[C@@H]2O | 6% | 38% | 86.7% | – | – | 18% | 3.66 nM | 22% | –
26 | CNC(=O)[C@@]12C[C@@H]1[C@@H](n1cnc3c(NC)nc(C#Cc4cccc5ccccc45)nc31)[C@H](O)[C@@H]2O | 25% | 34% | 94.6% | – | – | – | – | – | –
27 | CNC(=O)[C@@]12C[C@@H]1[C@@H](n1cnc3c(NC)nc(C#Cc4ccc(-c5ccccc5)cc4)nc31)[C@H](O)[C@@H]2O | 21% | 29% | 110% | – | – | – | – | – | –
